According to patent publication US20090305271A1, “In Vitro Assay Based on Camp Levels Modulated by Gi-Coupled Receptors” (priority 2006, published 2009):

How the values were obtained:
Format in all cases: cell-based
[1] = biological target: T1, human dopamine D4.4 receptor (Homo sapiens, UniProt P21917); test: cAMP assay with NKH477 or forskolin as activator, D4.4 receptor stably expressed in CHO-K1; settings: D4.4 in CHO-K1, 1 μM of agonist (dopamine)
T1 construct: expressed in transfected cells; host or cells: CHO-K1
T1 sequence (P21917 1-419): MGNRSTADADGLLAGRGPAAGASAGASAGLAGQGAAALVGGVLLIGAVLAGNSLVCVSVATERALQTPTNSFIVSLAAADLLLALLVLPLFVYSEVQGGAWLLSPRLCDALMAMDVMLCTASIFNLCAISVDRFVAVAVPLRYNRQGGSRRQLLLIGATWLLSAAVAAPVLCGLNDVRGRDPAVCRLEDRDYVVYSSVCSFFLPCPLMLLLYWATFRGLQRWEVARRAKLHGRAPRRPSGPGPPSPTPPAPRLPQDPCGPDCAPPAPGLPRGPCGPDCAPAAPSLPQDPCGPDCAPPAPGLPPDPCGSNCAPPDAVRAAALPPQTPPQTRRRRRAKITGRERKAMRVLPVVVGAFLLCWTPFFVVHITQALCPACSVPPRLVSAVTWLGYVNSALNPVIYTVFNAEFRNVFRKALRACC
Experimental: cAMP measurements on CHO-K1 cells that stably expressed the human muscarinic M4 or the human dopamine D4.4 receptor were performed via the HTRF (homogeneous time-resolved fluorescence) technology (CIS Bio, France). The principle of these cAMP assays is based on a competition between cAMP produced by cells and cAMP-XL665 conjugate for the binding with monoclonal anti-cAMP-cryptate conjugate. The HTRF) conjugates are prepared in lysis buffer so that the cell lysis and the detection step can be performed simultaneously.
(§1) To measure the production of cAMP from cells, cells were harvested and resuspended with HBSS Buffer. Varying concentrations of cells were plated in a 96-well plate. Serial dilutions of agonists (Dopamine or Epinephrine) were added and incubated for 10′ at room temperature with the cells. Forskolin or NKH477 were added, and the plate was incubated at 37° C. for 10 minutes. After cell induction, the assay reagents were added as outlined in the assay procedure.
For the D4—CHO K1 cell line (D4 stably transfected in CHO K1 host cell line) 0.7 μM of NKH477 and Forskolin were used with or without 1 μM of Dopamine
(§2) c) CHO-K1 cells expressing D4.4, alpha2c H3 and D2S receptors were exposed to increasing concentrations of ligands, respectively dopamine, epinephrine, histamine and dopamine ranging from 0.01 nM to 10 μM in the presence of 30 μM forskolin or 10 μM NKH-477.

alpha 2c receptor = biological target: T2, alpha 2c receptor (Homo sapiens, UniProt P18825); test: cAMP assay with NKH477 or forskolin as activator, alpha 2c receptor stably expressed in CHO-S; settings: alpha 2c in CHO-S, 1 μM of agonist (epinephrine)
T2 construct: expressed in transfected cells; host or cells: CHO-S
T2 sequence (P18825 1-462): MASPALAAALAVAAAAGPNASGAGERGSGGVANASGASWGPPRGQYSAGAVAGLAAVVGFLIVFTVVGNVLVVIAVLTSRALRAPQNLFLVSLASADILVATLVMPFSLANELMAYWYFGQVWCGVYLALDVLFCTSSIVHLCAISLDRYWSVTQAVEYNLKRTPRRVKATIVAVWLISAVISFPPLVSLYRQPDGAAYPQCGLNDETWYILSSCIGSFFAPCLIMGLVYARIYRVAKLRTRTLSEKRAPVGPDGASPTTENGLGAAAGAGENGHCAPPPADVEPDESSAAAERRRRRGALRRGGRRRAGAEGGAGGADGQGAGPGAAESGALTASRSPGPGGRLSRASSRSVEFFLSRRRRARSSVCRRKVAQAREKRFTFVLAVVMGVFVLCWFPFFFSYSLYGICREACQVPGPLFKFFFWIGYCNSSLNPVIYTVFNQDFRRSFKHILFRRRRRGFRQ
Experimental: as §1
For the alpha2c—CHO S cell line (alpha 2c stably transfected in CHO S host cell line) was incubate with 5 μM of NKH477 and Forskolin 10′ at 37° C. without or with 1 μM of Epinephrine
as §2

[2] = test system: adenylyl cyclase isoform V and/or VI; test: cAMP production with NKH-477 instead of forskolin as in vitro activator of cAMP formation; settings: cells expressing the adenylyl cyclase isoform V and/or VI
human muscarinic M4 = biological target: T3, human muscarinic M4 (Homo sapiens, UniProt P08173); test: cAMP HTRF functional assay, forskolin-induced cAMP production in M4/CHO/miRNA cell line
T3 construct: expressed in transfected cells; host or cells: CHO-K1 (M4/CHO and M4/CHO/miRNA cell lines)
T3 sequence (P08173 1-479): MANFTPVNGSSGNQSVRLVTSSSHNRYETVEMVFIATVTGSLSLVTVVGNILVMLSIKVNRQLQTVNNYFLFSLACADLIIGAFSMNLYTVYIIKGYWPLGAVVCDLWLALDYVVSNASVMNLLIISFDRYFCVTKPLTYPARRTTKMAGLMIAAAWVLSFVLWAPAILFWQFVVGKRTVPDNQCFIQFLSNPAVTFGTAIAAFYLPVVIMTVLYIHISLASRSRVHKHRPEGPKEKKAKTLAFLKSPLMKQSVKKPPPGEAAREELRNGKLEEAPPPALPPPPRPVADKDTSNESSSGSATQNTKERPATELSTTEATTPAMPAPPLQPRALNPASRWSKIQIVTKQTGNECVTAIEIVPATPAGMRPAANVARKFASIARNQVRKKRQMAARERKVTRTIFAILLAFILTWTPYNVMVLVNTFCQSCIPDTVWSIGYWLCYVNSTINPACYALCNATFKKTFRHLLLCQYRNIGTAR
Experimental: CHO-K1 stably expressing the human muscarinic M4 or the human dopamine D4.4 receptor were cultured under standard conditions. Cells were harvested by EDTA, washed once in phosphate buffered saline and resuspended in assay buffer (HBSS containing 0.1% glucose and 0.5 mM IBMX). The cells were dispensed into a black 96 half-well plate at a cell density of 10,000-15,000 cells. After incubation for 30 min at room temperature or at 37° C., an equal volume of assay buffer containing forskolin, then acetylcholine or quimpirole was added to the cells. After incubation for 30 min at room temperature or 37° C., cAMP detection was performed following the protocol described above. The plate was incubated for one more hour at room temperature and then measured on a RUBYstar^a (BMG Labtechnologies) time-resolved fluorescence reader. […]

| Structure (SMILES) | enhancement of cAMP production inhibition with NKH477 instead of forskolin [1] | signal window compared with Forskolin [1] | enhancement of cAMP production inhibition with NKH477 instead of forskolin (alpha 2c receptor) | signal window compared with Forskolin (alpha 2c receptor) | increase of the production of cAMP instead of forskolin [2] | inhibition at 1 µM (human muscarinic M4; 1 μM, M4/CHO/miRNA cell line, read-out: inhibition of Forskolin stimulated cAMP production) [%] | increase of inhibitory potency on Forskolin induced cAMP production compared to wild CHO cells expressing M4 receptor (human muscarinic M4; M4/CHO/miRNA versus M4/CHO) |
| --- | --- | --- | --- | --- | --- | --- | --- |
| C=C[C@@]1(C)CC(=O)[C@]2(O)[C@@]3(C)[C@@H](O)CCC(C)(C)[C@@H]3[C@H](OC(=O)CCN(C)C)[C@H](OC(C)=O)[C@@]2(C)O1.Cl [NKH477, 6-(3-dimethylaminopropionyl) forskolin hydrochloride] | up to 20% | greater signal window than Forskolin | up to 20% | greater signal window than Forskolin | up to 20% |  |  |
| O=C1CCCN1CC#CCN1CCCC1 [Oxotremorine] |  |  |  |  |  | > 85 | 25-30% |
